Columns and labels:
[1] = tested on: STZ-induced diabetic mice (male C57B6); assay: Blood glucose control in STZ-induced diabetic mice after one subcutaneous injection; type: in vivo, mouse; conditions: after administration
[2] = Plasma human insulin in STZ-induced diabetic mice (human insulin ELISA); conditions: mouse, in vivo

인슐린 용액: human recombinant insulin solution (zinc salt, Invitrogen)
time when BG rose to the hyperglycemic range [1]: 둘째 날 | plasma insulin concentration on the day after administration [2]: 급격한 감소

From KR20160024853A, “당뇨병 치료를 위한 주사형 나노-네트워크 겔” (메사추세츠 인스티튜트 오브 테크놀로지, priority 2013, dated 2016)
